Data from patent US20210137886A1, “INHIBITORS OF METALLO-BETA-LACTAMASES” (Oxford University Innovation Limited, priority 2017, published 2021).
In brackets after ≈: the same amount, converted by molar mass.

Tests used:
[1] = target: VIM-2 (Veronese metallo-β-lactamase-2) (Escherichia coli, UniProt Q5U7L7); assay: Metallo-β-lactamase enzyme inhibition, standard assay protocol
IMP-1 (Imipenemase-1) = IMP-1 (Imipenemase-1) (Serratia marcescens, UniProt P52699); assay: as above
[2] = target: NDM-1 (New Delhi metallo-β-lactamase-1) (Klebsiella pneumoniae, UniProt C7C422); assay: as above
[3] = target: VIM-1 (Veronese metallo-β-lactamase-1) (Pseudomonas aeruginosa, UniProt A0A0F7KYQ8); assay: as above
[4] = tested on: Klebsiella pneumoniae IMP-4; assay: Meropenem MIC, CLSI broth or agar microdilution, strain entry 1; format: cell-based
E. coli IMP-4 = assay: Meropenem MIC, CLSI broth or agar microdilution, strain entry 2; format: cell-based
E. coli VIM-1 = assay: Meropenem MIC, CLSI broth or agar microdilution, strain entry 3; format: cell-based; settings: for Change in MIC value of meropenem: strain entry 3, E. coli VIM-1
Source text: (§1) In each case DMSO was used to dissolve inhibitors.

[5] = tested on: Klebsiella pneumoniae VIM-1; assay: Meropenem MIC, CLSI broth or agar microdilution, strain entry 4; format: cell-based
[6] = tested on: Pseudomonas aeruginosa VIM-2; assay: Meropenem MIC, CLSI broth or agar microdilution, strain entry 5; format: cell-based; settings: for Change in MIC value of meropenem: strain entry 5, Pseudomonas aeruginosa VIM-2
Source text: as §1

[7] = tested on: Klebsiella pneumoniae NDM-1; assay: Meropenem MIC, CLSI broth or agar microdilution, strain entry 6; format: cell-based; settings: for Change in MIC value of meropenem: strain entry 6, Klebsiella pneumoniae NDM-1
Source text: as §1

[8] = tested on: Klebsiella pneumoniae NDM-1 + DHA + CTX − M-15; assay: Meropenem MIC, CLSI broth or agar microdilution, strain entry 7; format: cell-based

Sequence of NDM-1 (New Delhi metallo-β-lactamase-1) (C7C422 29-270, looked up, species assumed): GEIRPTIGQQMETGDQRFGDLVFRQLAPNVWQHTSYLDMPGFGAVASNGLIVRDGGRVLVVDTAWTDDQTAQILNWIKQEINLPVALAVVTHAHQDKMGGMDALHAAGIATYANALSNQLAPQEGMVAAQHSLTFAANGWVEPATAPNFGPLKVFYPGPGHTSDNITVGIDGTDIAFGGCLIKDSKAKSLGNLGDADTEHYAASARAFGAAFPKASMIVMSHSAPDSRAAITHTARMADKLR
Sequence of IMP-1 (Imipenemase-1) (P52699 19-246, looked up, species assumed): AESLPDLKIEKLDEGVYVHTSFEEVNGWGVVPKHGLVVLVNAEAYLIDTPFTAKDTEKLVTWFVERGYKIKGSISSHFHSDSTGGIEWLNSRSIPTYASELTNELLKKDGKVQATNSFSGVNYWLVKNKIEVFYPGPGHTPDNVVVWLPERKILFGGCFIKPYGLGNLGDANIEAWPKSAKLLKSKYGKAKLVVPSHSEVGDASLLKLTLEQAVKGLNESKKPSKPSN

`O=C(O)c1[nH]c2c(Br)csc2c1-c1cc(Cl)cc(Cl)c1` [Example 1, 3-bromo-6-(3,5-dichlorophenyl)-4H-thieno[3,2-b]pyrrole-5-carboxylic acid] gave an IC50 [1] of 0.0398 µM, an IC50 (IMP-1 (Imipenemase-1)) of 1 µM and an IC50 [2] of 0.0631 µM. The IC50 [3] was 0.631 µM.
For `O=C(O)c1[nH]c2c(C3CC3)csc2c1-c1cc(Cl)cc(Cl)c1` [Example 2, 3-cyclopropyl-6-(3,5-dichlorophenyl)-4H-thieno[3,2-b]pyrrole-5-carboxylic acid], the “Change in MIC value of meropenem” value ([4]; 2 mg/L inhibitor) was −2 log2 difference, the “Change in MIC value of meropenem” value ([4]; 4 mg/L inhibitor) was −2 log2 difference and the “Change in MIC value of meropenem” value ([4]; 8 mg/L inhibitor) was −2 log2 difference. For the same compound, the “Change in MIC value of meropenem” value (E. coli IMP-4; 2 mg/L inhibitor) was −2 log2 difference, the “Change in MIC value of meropenem” value (E. coli IMP-4; 4 mg/L inhibitor) was −2 log2 difference and the “Change in MIC value of meropenem” value (E. coli IMP-4; 8 mg/L inhibitor) was −3 log2 difference. For the same compound, the “Change in MIC value of meropenem” value (E. coli VIM-1; 2 mg/L inhibitor) was −1 log2 difference, the “Change in MIC value of meropenem” value (E. coli VIM-1; 4 mg/L inhibitor) was −1 log2 difference and the “Change in MIC value of meropenem” value (E. coli VIM-1; 8 mg/L inhibitor) was −1 log2 difference. The “Change in MIC value of meropenem” value ([5]; 2 mg/L inhibitor) was −2 log2 difference, the “Change in MIC value of meropenem” value ([5]; 4 mg/L inhibitor) was −2 log2 difference and the “Change in MIC value of meropenem” value ([5]; 8 mg/L inhibitor) was −2 log2 difference. For the same compound, the “Change in MIC value of meropenem” value ([6]; 2 mg/L inhibitor) was 0 log2 difference, the “Change in MIC value of meropenem” value ([6]; 4 mg/L inhibitor) was 0 log2 difference and the “Change in MIC value of meropenem” value ([6]; 8 mg/L inhibitor) was 0 log2 difference. The “Change in MIC value of meropenem” value ([7]; 2 mg/L inhibitor) was −1 log2 difference, the “Change in MIC value of meropenem” value ([7]; 4 mg/L inhibitor) was −1 log2 difference and the “Change in MIC value of meropenem” value ([7]; 8 mg/L inhibitor) was −2 log2 difference. The “Change in MIC value of meropenem” value ([8]; 2 mg/L inhibitor) was −1 log2 difference, the “Change in MIC value of meropenem” value ([8]; 4 mg/L inhibitor) was −2 log2 difference and the “Change in MIC value of meropenem” value ([8]; 8 mg/L inhibitor) was −3 log2 difference. For the same compound, the IC50 [1] was 0.00501 µM, the IC50 (IMP-1 (Imipenemase-1)) was 0.0794 µM and the IC50 [2] was 0.0158 µM. The IC50 [3] was 0.126 µM.
`O=C(O)c1cc2scc(Br)c2[nH]1` [Example 3, 3-bromo-4H-thieno[3,2-b]pyrrole-5-carboxylic acid] gave an IC50 [1] of 15.8 µM, an IC50 (IMP-1 (Imipenemase-1)) greater than 251 µM and an IC50 [2] of 126 µM. The IC50 [3] was greater than 251 µM.
Compound `O=C(O)c1[nH]c2c(Br)csc2c1-c1ccc(F)cc1` [Example 4, 3-Bromo-6-(4-fluorophenyl)-4H-thieno-[3,2-b]pyrrole-5-carboxylic acid] has an IC50 [1] of 0.316 µM, an IC50 (IMP-1 (Imipenemase-1)) of 2.51 µM and an IC50 [2] of 0.2 µM. It also gave an IC50 [3] of 5.01 µM.
In the case of `O=C(O)c1[nH]c2c(-c3ccc(F)cc3)csc2c1-c1ccc(F)cc1` [Example 5, 3,6-Bis(4-fluorophenyl)-4H-thieno-[3,2-b]pyrrole-5-carboxylic acid], the IC50 [1] is reported as 10 µM, the IC50 (IMP-1 (Imipenemase-1)) is reported as 2.51 µM and the IC50 [2] is reported as 12.6 µM. It also gave an IC50 [3] greater than 39.8 µM.
With `C=C(C)c1csc2c(-c3ccc(F)cc3)c(C(=O)O)[nH]c12` [Example 6, 3-isopropenyl-6-(4-fluorophenyl)-4H-thieno-[3,2-b]pyrrole-5-carboxylic acid] the “Change in MIC value of meropenem” value ([4]; 2 mg/L inhibitor) was −2 log2 difference, the “Change in MIC value of meropenem” value ([4]; 4 mg/L inhibitor) was −2 log2 difference and the “Change in MIC value of meropenem” value ([4]; 8 mg/L inhibitor) was −2 log2 difference. For the same compound, the “Change in MIC value of meropenem” value (E. coli IMP-4; 2 mg/L inhibitor) was −2 log2 difference, the “Change in MIC value of meropenem” value (E. coli IMP-4; 4 mg/L inhibitor) was −2 log2 difference and the “Change in MIC value of meropenem” value (E. coli IMP-4; 8 mg/L inhibitor) was −2 log2 difference. For the same compound, the “Change in MIC value of meropenem” value (E. coli VIM-1; 2 mg/L inhibitor) was −1 log2 difference, the “Change in MIC value of meropenem” value (E. coli VIM-1; 4 mg/L inhibitor) was 0 log2 difference and the “Change in MIC value of meropenem” value (E. coli VIM-1; 8 mg/L inhibitor) was −1 log2 difference. The “Change in MIC value of meropenem” value ([5]; 2 mg/L inhibitor) was −1 log2 difference, the “Change in MIC value of meropenem” value ([5]; 4 mg/L inhibitor) was −1 log2 difference and the “Change in MIC value of meropenem” value ([5]; 8 mg/L inhibitor) was 0 log2 difference. The “Change in MIC value of meropenem” value ([6]; 2 mg/L inhibitor) was 0 log2 difference, the “Change in MIC value of meropenem” value ([6]; 4 mg/L inhibitor) was 0 log2 difference and the “Change in MIC value of meropenem” value ([6]; 8 mg/L inhibitor) was 0 log2 difference. The “Change in MIC value of meropenem” value ([7]; 2 mg/L inhibitor) was −1 log2 difference, the “Change in MIC value of meropenem” value ([7]; 4 mg/L inhibitor) was −1 log2 difference and the “Change in MIC value of meropenem” value ([7]; 8 mg/L inhibitor) was −1 log2 difference. The “Change in MIC value of meropenem” value ([8]; 2 mg/L inhibitor) was −1 log2 difference, the “Change in MIC value of meropenem” value ([8]; 4 mg/L inhibitor) was −1 log2 difference and the “Change in MIC value of meropenem” value ([8]; 8 mg/L inhibitor) was −1 log2 difference. The IC50 [1] was 0.126 µM, the IC50 (IMP-1 (Imipenemase-1)) was 0.501 µM and the IC50 [2] was 0.0398 µM. The IC50 [3] was 0.631 µM.
`CC(C)c1csc2cc(C(=O)O)[nH]c12` [Example 7, 3-isopropyl-4H-thieno[3,2-b]pyrrole-5-carboxylic acid] showed an IC50 [1] of 20 µM, an IC50 (IMP-1 (Imipenemase-1)) greater than 63.1 µM and an IC50 [2] of 39.8 µM. For the same compound, the IC50 [3] was greater than 251 µM.
`O=C(O)c1cc2scc(C3CC3)c2[nH]1` [Example 8, 3-cyclopropyl-4H-thieno[3,2-b]pyrrole-5-carboxylic acid] showed an IC50 [1] of 39.8 µM, an IC50 (IMP-1 (Imipenemase-1)) greater than 251 µM and an IC50 [2] of 126 µM. The IC50 [3] was greater than 251 µM.
`CC(=O)Nc1cccc(-c2c(C(=O)O)[nH]c3c(Br)csc23)c1` [Example 9, 6-(3-acetamidophenyl)-3-bromo-4H-thieno[3,2-b]pyrrole-5-carboxylic acid] gave an IC50 [1] of 0.0501 µM, an IC50 (IMP-1 (Imipenemase-1)) of 12.6 µM and an IC50 [2] of 0.316 µM. For the same compound, the IC50 [3] was 1.58 µM.
In the case of `CS(=O)(=O)Cc1ccc(-c2c(C(=O)O)[nH]c3c(C4CC4)csc23)cc1Cl` [Example 18, 6-(3-chloro-4-((methylsulfonyl)methyl)phenyl)-3-cyclopropyl-4H-thieno[3,2-b]pyrrole-5-carboxylic acid], the “Change in MIC value of meropenem” value ([4]; 2 mg/L inhibitor) is reported as 0 log2 difference, the “Change in MIC value of meropenem” value ([4]; 4 mg/L inhibitor) is reported as 0 log2 difference and the “Change in MIC value of meropenem” value ([4]; 8 mg/L inhibitor) is reported as 0 log2 difference. For the same compound, the “Change in MIC value of meropenem” value (E. coli IMP-4; 2 mg/L inhibitor) was 0 log2 difference, the “Change in MIC value of meropenem” value (E. coli IMP-4; 4 mg/L inhibitor) was 0 log2 difference and the “Change in MIC value of meropenem” value (E. coli IMP-4; 8 mg/L inhibitor) was 0 log2 difference. The “Change in MIC value of meropenem” value (E. coli VIM-1; 2 mg/L inhibitor) was −1 log2 difference, the “Change in MIC value of meropenem” value (E. coli VIM-1; 4 mg/L inhibitor) was −1 log2 difference and the “Change in MIC value of meropenem” value (E. coli VIM-1; 8 mg/L inhibitor) was −1 log2 difference. For the same compound, the “Change in MIC value of meropenem” value ([5]; 2 mg/L inhibitor) was −3 log2 difference, the “Change in MIC value of meropenem” value ([5]; 4 mg/L inhibitor) was −2 log2 difference and the “Change in MIC value of meropenem” value ([5]; 8 mg/L inhibitor) was −3 log2 difference. For the same compound, the “Change in MIC value of meropenem” value ([6]; 2 mg/L inhibitor) was 0 log2 difference, the “Change in MIC value of meropenem” value ([6]; 4 mg/L inhibitor) was 0 log2 difference and the “Change in MIC value of meropenem” value ([6]; 8 mg/L inhibitor) was 0 log2 difference. The “Change in MIC value of meropenem” value ([7]; 2 mg/L inhibitor) was 0 log2 difference, the “Change in MIC value of meropenem” value ([7]; 4 mg/L inhibitor) was 0 log2 difference and the “Change in MIC value of meropenem” value ([7]; 8 mg/L inhibitor) was 0 log2 difference. The “Change in MIC value of meropenem” value ([8]; 2 mg/L inhibitor) was −2 log2 difference, the “Change in MIC value of meropenem” value ([8]; 4 mg/L inhibitor) was −2 log2 difference and the “Change in MIC value of meropenem” value ([8]; 8 mg/L inhibitor) was −2 log2 difference.
`C[C@@H](O)[C@H]1C(=O)N2C(C(=O)O)=C(S[C@@H]3CN[C@H](C(=O)N(C)C)C3)[C@H](C)[C@H]12` [meropenem, reference compound] was tested, and the MIC (E. coli VIM-1; Escherichia coli, VIM1, read-out: MER MIC) was 0.25 µg/mL (≈ 0.652 µM), the MIC ([6]; Pseudomonas aeruginosa, VIM2, read-out: MER MIC) was 32 µg/mL (≈ 83.4 µM) and the MIC ([7]; Klebsiella pneumoniae, NDM1, read-out: MER MIC) was greater than 128 µg/mL.
